For experiment [1], the system named is volatile organic compounds (VOCs). The experiment can be described thus: SPME-GC-MS of volatile organic compounds (VOCs) in saliva fermentation. Type of experiment: cell-based, halitosis subjects (saliva). How it is done: Fresh saliva was collected from 10 halitosis subjects (Halimeter index >120). Subjects were required not to consume any food or drink for 2 hours before donating saliva. Saliva was directly spat into a saliva collection tube, 5 ml per person, and mixed. The mixture was centrifuged at 4500 rpm for 10 minutes, and the supernatant was collected, aliquoted, and stored at -80°C for subsequent experimental studies.
Lysate group: In a headspace vial, 100 µl of saliva was added first, followed by separate addition of ET-22 viable bacteria (1.0×10^9 CFU/ml), ET-22 heat-inactivated bacterial cells (obtained by inactivating viable bacteria at 1.0×10^9 CFU/ml), and lysate (obtained by inactivating and then filtering viable bacteria at 1.0×10^9 CFU/ml), each at 100µl. Then, 800 µl of SHI medium was added. After filling with nitrogen, anaerobic cultivation was performed for 10 hours for loading on machine, and then SPME-GC-MS was used to test the change in content of volatile organic compound.
NAD group: In a headspace vial, 100 µl of saliva was added first, followed by the separate addition of ET-22 viable bacteria (1.0×10^9 CFU/ml), ET-22 heat-inactivated bacterial cells (obtained by heat-inactivating viable bacteria at 1.0×10^9 CFU/ml), and NAD (100 µg/ml), each at 100µl. Then, 800 µl of SHI medium was added. After filling with nitrogen, anaerobic cultivation was performed for 10 hours for loading on machine, then SPME-GC-MS was used to test the changes in content of volatile organic compound.
2-hydroxy-3-phenylpropionic acid group: In a headspace vial, 100 µl of saliva was added first, followed by the separate addition of ET-22 viable bacteria (1.0×10^9 CFU/ml), ET-22 heat-inactivated bacterial cells (obtained by heat-inactivating viable bacteria at 1.0×10^9 CFU/ml), and 2-hydroxy-3-phenylpropionic acid (100 µg/ml), each at 100µl. […]
Helium was used as a carrier gas, with a rate remaining at 1.1 mL min-1. […] The flavor characteristic of each compound was determined based on data from the Good Scents Company Information System (http://www.thegoodscentscompany.com).

Another experiment concerns Solobacterium moorei. The experiment can be described thus: in vitro oral biofilm model, sequencing: relative abundance. In kind it is cell-based. How it is done: 100 µl of saliva was added to a 24-well plate, then 100 µl of the corresponding concentration solution was added respectively to the experimental groups, and finally 800 µl of SHI medium was added. The plate was placed in an anaerobic box and cultured anaerobically at 37°C for 10 hours. Then, the supernatant was discarded, and the multi-species biofilm adhered to the well plate was obtained. After discarding the supernatant from the incubated biofilm, the biofilm adhered to the bottom of the well plate was re-suspended with sterile water by pipetting, transferred to a 1.5 ml centrifuge tube, and stored until gene sequencing was performed.
Based on sequencing results, halitosis-causing pathogenic bacteria in the biofilm were identified. Four key halitosis-causing pathogenic bacteria were identified: Fusobacterium nucleatum, Streptococcus mutans, Prevotella intermedia, and Solobacterium moorei. All four bacteria had been proven to be positively correlated with VSC concentration. […] Therefore, this example adopts lysate, NAD, 2-hydroxy-3-phenylpropionic acid, and polypeptide GP(Hyp)GAG to intervene in halitosis-causing pathogenic bacteria in the biofilm, evaluating changes in the relative abundance of pathogenic bacteria after intervention. Additionally, Prevotella intermedia is a periodontal pathogen that can produce indole via the tryptophan metabolic pathway. […]

The structures appear in SMILES notation.

With `O=C(O)C(O)Cc1ccccc1` (centres unmarked) [2-hydroxy-3-phenylpropionic acid], the “number of flavor-active acid compounds” value in experiment [1] (among 71 aroma-active VOCs, 100 µg/ml) is on record as “significantly decreases”. In experiment [1] (among 71 aroma-active VOCs, pure components 100 µg/ml, others from 1.0×10^9 CFU/ml), the “number of flavor-active ester compounds” value is “significantly decreases”. Moreover, the “number of alkane compounds (VOCs)” value in experiment [1] (pure components 100 µg/ml, peptidoglycan from 1.0×10^9 CFU/ml, 10 hours) was “significantly decreases”. Further, the “growth of Solobacterium moorei (relative abundance)” value with Solobacterium moorei (multi-species biofilm, 37°C 10 hours) is on record as “significantly inhibit the growth”. Moreover, the “inhibitory effect on Solobacterium moorei” value with Solobacterium moorei (relative to ET-22 viable bacteria or ET-22 heat-inactivated bacteria) is recorded as “better”.

Source of the values: patent EP4772186A1, “USE AND COMPOSITION OF POSTBIOTIC OF LACTOBACILLUS PARACASEI ET-22” (Inner Mongolia Yili Industrial Group Co., Ltd., priority 2023, dated 2025).
